Key:
[1] = system: cholesterol; settings: rats; cited from earlier work
[2] = system: cholesterol biosynthesis (in HEP-G2 cells); assay: Suppression or inhibition of HMG-CoA reductase in cell cultures of HEP-G2 cells: inhibition of cholesterol biosynthesis from 14C-acetate; assay type: cell-based; settings: Homo sapiens, HepG2, monolayers, e.g. 1 hour preincubation, 3 hours with sodium 14C-acetate, Table 2
Description: 2. Suppression or inhibition of HMG-CoA reductase in cell cultures of HEP-G2 cells
Monolayers of HEP-G2 cells in the lipoprotein-free nutrient medium were preincubated with appropriate concentrations of the test substances for a defined time (for example 1 hour) and, after addition of the labeled precursor, for example sodium ^14 C-acetate, the incubation was continued (for example for 3 hours). An internal standard (^3 H-cholesterol) was added and then a portion of the cells underwent alkaline hydrolysis. The lipids from the hydrolyzed cells were extracted with chloroform/methanol. After addition of carrier cholesterol to this lipid mixture it was subjected to preparative thin-layer chromatography, the cholesterol band was visualized with iodine vapor and then isolated, and the amount of ^14 C-cholesterol formed from the ^14 C-precursor was determined by scintigraphy. Cell protein was determined in an aliquot of the cells so that it is possible to calculate the amount of ^14 C-cholesterol formed per unit time and per mg of cell protein. The inhibitory effect of the particular test product on the cholesterol biosynthesis by HEP-G2 cell cultures was obtained by comparing this figure with the amount of ^14 C-cholesterol formed per mg of cell protein and unit time in a culture treated in the same way but free of test substance.
Examination of substances for inhibition of cholesterol biosynthesis
in confluent cell cultures (monolayers) of HEP-G2 cells
The method described above was used to measure, for example, the following figures for the inhibition of cholesterol biosynthesis (in HEP-G2 cells) by the compounds according to the invention (the IC50 /mol/liter is that concentration of the compound which brings about 50% inhibition of cholesterol biosynthesis) (Tab. 2).

[3] = target: T1, HMG-CoA reductase (Rattus norvegicus, UniProt P51639); assay: HMG CoA reductase activity in enzyme preparations (solubilized enzyme preparations from liver microsomes of cholestyramine-induced rats, 14C-HMG-CoA substrate); assay type: biochemical; settings: solubilized rat liver microsomal enzyme; mean of 3 parallel samples; Table 1; read-out: IC50 for inhibition of HMG-CoA reductase
T1 construct: solubilized enzyme preparations from liver microsomes from rats; from tissue; host or cells: liver microsomes of cholestyramine-induced rats
T1 sequence (P51639 1-887): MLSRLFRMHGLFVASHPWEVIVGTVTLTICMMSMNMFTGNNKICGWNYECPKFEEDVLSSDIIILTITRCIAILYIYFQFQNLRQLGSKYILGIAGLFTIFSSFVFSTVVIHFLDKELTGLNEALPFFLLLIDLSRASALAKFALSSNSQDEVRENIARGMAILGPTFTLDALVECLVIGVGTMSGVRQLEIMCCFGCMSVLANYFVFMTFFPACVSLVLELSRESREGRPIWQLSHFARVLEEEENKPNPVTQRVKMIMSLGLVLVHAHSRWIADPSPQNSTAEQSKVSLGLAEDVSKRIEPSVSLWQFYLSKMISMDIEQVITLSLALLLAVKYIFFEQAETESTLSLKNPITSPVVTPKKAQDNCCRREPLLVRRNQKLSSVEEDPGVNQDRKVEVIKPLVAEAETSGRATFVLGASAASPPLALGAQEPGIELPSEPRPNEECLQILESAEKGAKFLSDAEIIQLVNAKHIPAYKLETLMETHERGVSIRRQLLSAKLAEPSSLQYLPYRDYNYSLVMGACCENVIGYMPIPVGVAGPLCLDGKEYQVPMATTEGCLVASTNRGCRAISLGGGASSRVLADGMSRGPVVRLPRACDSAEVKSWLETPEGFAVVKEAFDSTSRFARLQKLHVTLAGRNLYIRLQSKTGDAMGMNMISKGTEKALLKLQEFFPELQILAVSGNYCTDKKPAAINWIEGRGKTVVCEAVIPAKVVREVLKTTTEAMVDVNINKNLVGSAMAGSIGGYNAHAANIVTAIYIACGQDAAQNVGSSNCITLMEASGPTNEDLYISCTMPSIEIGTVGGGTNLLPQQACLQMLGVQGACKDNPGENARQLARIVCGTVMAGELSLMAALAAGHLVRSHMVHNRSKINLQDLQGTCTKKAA
Description: 1. HMG CoA reductase activity in enzyme preparations
The HMG-CoA reductase activity was measured on solubilized enzyme preparations from liver microsomes from rats which, after a changeover in the day/night rhythm, had been induced with cholestyramine (®Cuemid).
The substrate used was (S,R) ^14 C-HMG-CoA, and the concentration of NADPH was maintained constant during the incubation by a regenerating system. ^14 C-Mevalonate was separated from the substrate and other products (e.g. ^14 C-HMG) by column elution, with the elution profile of each individual sample being determined.
Permanent inclusion of ^3 H-mevalonate was dispensed with because the determination was for relative data on the inhibitory effect. In each test series the enzyme-free control, the enzyme-containing normal mixture (=100%) and those with added product, final concentration 10^-5 to 10^-9 M, were treated together. Each individual value was formed as the mean of 3 parallel samples. The significance of the differences between means for product-free and product-containing samples was assessed using the t test.
The method described above was used to measure, for example, the following figures for the inhibition of HMG-CoA reductase by the compounds according to the invention [IC50 /mol/liter means the molar concentration of the compound per liter necessary for 50% inhibition]: […]

Row | Compound | cholesterol-lowering action [1] | IC50 [2] | IC50 [3]
1 | CC(O)(CC(=O)O)CC(=O)O [3-Hydroxy-3-methylglutaric acid] | significant cholesterol-lowering action |  | 
2 | CC(C)c1nc(-c2ccc(F)cc2)nc(-c2ccc(F)cc2)c1/C=C(\F)[C@@H]1C[C@@H](O)CC(=O)O1 [10 a] |  | 19 nM | 2.9 nM
3 | CC(C)c1nc(-c2ccccc2)cc(-c2ccc(F)cc2)c1/C=C(\F)[C@@H]1C[C@@H](O)CC(=O)O1 [10 b] |  | 4.6 nM | 9 nM
4 | CC(C)c1nc(-c2ccc(F)cc2)c(/C=C(\F)[C@@H]2C[C@@H](O)CC(=O)O2)c(C(C)C)n1 [10 g] |  | 2.5 nM | 1.8 nM
5 | CC(C)c1nc(-c2ccc(F)cc2)nc(-c2ccc(F)cc2)c1C=C(F)C(O)CC(O)CC(=O)O (stereo not drawn) [11 a] |  | 18 nM | 
6 | CC(C)c1nc(-c2ccccc2)cc(-c2ccc(F)cc2)c1/C=C(\F)[C@@H](O)C[C@@H](O)CC(=O)O [11 b] |  | 20 nM | 

Source: US5204351A, “6-fluoro-3,5-dihydroxy carboxylic acids and derivatives thereof” (Hoechst Aktiengesellschaft, priority 1988, dated 1993)
